Target: T1, Nav 1.7 (Homo sapiens, UniProt Q15858)
T1 construct: expressed in transfected cells
Test: Whole-cell voltage clamp electrophysiology, automated patch clamp (marker c in Table of Examples)
Assay type: cell-based
Details: marker c = Automated patch clamp data; read-out: Nav 1.7 activity
Procedure, shortened: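 Human NaV1.7 currents were recorded by whole-cell automated patch clamp, on IonWorks Quattro or another automated platform, typically in perforated-patch configuration. The stimulus protocol was designed to probe block mainly of the inactivated state, with a typical sweep stepping from about −65 mV holding to −10 mV, then −100 mV.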

T1 sequence (Q15858 whole entry): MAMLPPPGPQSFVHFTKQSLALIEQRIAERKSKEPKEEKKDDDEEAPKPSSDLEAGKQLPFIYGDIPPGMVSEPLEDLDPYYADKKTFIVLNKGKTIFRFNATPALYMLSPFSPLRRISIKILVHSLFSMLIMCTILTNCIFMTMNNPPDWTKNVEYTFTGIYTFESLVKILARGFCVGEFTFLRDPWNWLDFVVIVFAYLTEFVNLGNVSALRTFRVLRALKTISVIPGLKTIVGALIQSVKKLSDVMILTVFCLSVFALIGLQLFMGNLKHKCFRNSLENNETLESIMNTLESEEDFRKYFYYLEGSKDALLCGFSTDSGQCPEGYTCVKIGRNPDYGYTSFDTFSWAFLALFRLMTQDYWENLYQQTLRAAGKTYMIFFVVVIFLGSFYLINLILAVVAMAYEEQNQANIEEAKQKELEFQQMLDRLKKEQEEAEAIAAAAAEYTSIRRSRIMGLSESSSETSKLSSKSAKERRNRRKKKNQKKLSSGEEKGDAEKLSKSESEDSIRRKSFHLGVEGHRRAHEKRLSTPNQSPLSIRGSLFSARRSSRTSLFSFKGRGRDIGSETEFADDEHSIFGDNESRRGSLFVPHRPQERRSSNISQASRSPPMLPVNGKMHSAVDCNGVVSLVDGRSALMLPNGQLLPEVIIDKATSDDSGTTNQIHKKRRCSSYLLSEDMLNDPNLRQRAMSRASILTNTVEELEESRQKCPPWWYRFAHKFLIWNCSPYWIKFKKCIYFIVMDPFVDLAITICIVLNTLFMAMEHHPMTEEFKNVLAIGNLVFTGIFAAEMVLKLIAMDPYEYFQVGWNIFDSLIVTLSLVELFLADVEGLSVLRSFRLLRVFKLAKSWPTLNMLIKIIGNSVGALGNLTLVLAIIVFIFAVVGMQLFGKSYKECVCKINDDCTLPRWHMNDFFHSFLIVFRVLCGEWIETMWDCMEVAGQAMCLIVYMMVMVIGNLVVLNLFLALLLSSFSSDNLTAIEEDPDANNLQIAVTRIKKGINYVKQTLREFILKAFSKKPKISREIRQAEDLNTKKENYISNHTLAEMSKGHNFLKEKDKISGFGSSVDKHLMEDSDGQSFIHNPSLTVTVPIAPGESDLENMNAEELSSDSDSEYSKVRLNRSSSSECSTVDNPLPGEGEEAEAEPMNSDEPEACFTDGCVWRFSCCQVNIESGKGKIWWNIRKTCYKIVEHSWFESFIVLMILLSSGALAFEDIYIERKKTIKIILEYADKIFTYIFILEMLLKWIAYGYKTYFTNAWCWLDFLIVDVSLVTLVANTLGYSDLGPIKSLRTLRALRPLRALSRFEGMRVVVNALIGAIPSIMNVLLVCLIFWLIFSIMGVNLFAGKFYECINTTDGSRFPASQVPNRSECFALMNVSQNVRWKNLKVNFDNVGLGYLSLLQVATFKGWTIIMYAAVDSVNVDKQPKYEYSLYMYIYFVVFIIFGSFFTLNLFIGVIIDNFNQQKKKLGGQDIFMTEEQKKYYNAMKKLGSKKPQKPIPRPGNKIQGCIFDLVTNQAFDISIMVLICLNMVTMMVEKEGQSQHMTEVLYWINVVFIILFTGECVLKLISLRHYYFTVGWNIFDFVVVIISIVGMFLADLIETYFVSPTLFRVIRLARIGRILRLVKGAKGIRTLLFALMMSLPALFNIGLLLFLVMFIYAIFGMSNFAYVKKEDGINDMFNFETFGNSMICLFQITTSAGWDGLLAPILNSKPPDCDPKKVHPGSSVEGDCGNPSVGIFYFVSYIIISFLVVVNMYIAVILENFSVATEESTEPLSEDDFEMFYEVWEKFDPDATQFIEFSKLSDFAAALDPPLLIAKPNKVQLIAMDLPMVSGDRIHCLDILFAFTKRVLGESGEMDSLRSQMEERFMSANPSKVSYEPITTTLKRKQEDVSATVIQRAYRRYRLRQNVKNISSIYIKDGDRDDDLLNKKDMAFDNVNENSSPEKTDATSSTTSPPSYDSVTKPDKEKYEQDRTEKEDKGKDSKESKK

| SMILES | IC50 |
| --- | --- |
| CN(c1ccccc1)c1nc(N)nc(-c2noc(-c3ncccc3NCC3CC3)n2)n1 [Example 487, 6-{5-[3-(Cyclopropylmethylamino)-pyridin-2-yl]-[1,2,4]oxadiazol-3-yl}-N-methyl-N-phenyl-[1,3,5]triazine-2,4-diamine] | > 6590 nM |
| CN(c1ccccc1)c1nc(N)nc(-c2noc(-c3ncccc3NC3CCC3)n2)n1 [Example 488, 6-{5-[3-(cyclobutylamino)pyridin-2-yl]-1,2,4-oxadiazol-3-yl}-2-N-methyl-2-N-phenyl-1,3,5-triazine-2,4-diamine] | 838 nM |
| CN(c1ccccc1)c1nc(N)nc(-c2noc(-c3ncccc3N3CCOCC3)n2)n1 [Example 490, 2-N-methyl-6-{5-[3-(morpholin-4-yl)pyridin-2-yl]-1,2,4-oxadiazol-3-yl}-2-N-phenyl-1,3,5-triazine-2,4-diamine] | 464 nM |
| CN(c1ccccc1)c1nc(N)nc(-c2noc(-c3ncccc3OC3CCC3)n2)n1 [Example 491, 6-[5-(3-cyclobutoxypyridin-2-yl)-1,2,4-oxadiazol-3-yl]-2-N-methyl-2-N-phenyl-1,3,5-triazine-2,4-diamine] | 1040 nM |
| CC(C)OC1CN(c2nc(-c3nc(N)nc(N(C)c4ccccc4)n3)no2)C1 [Example 492, 6-[5-(3-Isopropoxyazetidin-1-yl)-[1,2,4]oxadiazol-3-yl]-N-methyl-N-phenyl-[1,3,5]triazine-2,4-diamine] | > 8080 nM |
| COC1CN(c2nc(-c3nc(N)nc(N(C)c4ccccc4)n3)no2)C1 [Example 493, 6-[5-(3-methoxyazetidin-1-yl)-1,2,4-oxadiazol-3-yl]-2-N-methyl-2-N-phenyl-1,3,5-triazine-2,4-diamine] | > 9350 nM |
| CN(c1ccccc1)c1nc(N)nc(-c2noc(N3CC(OCC(F)(F)F)C3)n2)n1 [Example 494, 2-N-methyl-2-N-phenyl-6-{5-[3-(2,2,2-trifluoroethoxy)azetidin-1-yl]-1,2,4-oxadiazol-3-yl}-1,3,5-triazine-2,4-diamine] | 1980 nM |
| CN(c1ccccc1)c1nc(N)nc(-c2noc(N3CC(COc4ccccc4)C3)n2)n1 [Example 495, N-Methyl-6-[5-(3-phenoxymethylazetidin-1-yl)-[1,2,4]oxadiazol-3-yl]-N-phenyl-[1,3,5]triazine-2,4-diamine] | 1910 nM |
| CN(c1ccccc1)c1nc(N)nc(-c2noc(N3CC(COCCC(F)(F)F)C3)n2)n1 [Example 496, 2-N-methyl-2-N-phenyl-6-(5-{3-[(3,3,3-trifluoropropoxy)methyl]azetidin-1-yl}-1,2,4-oxadiazol-3-yl)-1,3,5-triazine-2,4-diamine] | 1220 nM |
| CN(c1ccccc1)c1nc(N)nc(-c2noc(-c3ccc(COCC(F)(F)F)o3)n2)n1 [Example 497, 2-N-methyl-2-N-phenyl-6-(5-{5-[(2,2,2-trifluoroethoxy)methyl]furan-2-yl}-1,2,4-oxadiazol-3-yl)-1,3,5-triazine-2,4-diamine] | 473 nM |
| CN(c1ccccc1)c1nc(N)nc(-c2noc(N3CC(OCC4CC4)C3)n2)n1 [Example 498, 6-{5-[3-(cyclopropylmethoxy)azetidin-1-yl]-1,2,4-oxadiazol-3-yl}-2-N-methyl-2-N-phenyl-1,3,5-triazine-2,4-diamine] | 902 nM |
| CN(c1ccccc1)c1nc(N)nc(-c2noc(N3CC(Oc4ccccn4)C3)n2)n1 [Example 499, 2-N-methyl-2-N-phenyl-6-{5-[3-(pyridin-2-yloxy)azetidin-1-yl]-1,2,4-oxadiazol-3-yl}-1,3,5-triazine-2,4-diamine] | 4590 nM |
| CN(c1ccccc1)c1nc(N)nc(-c2noc(N3CC4CCC(C3)O4)n2)n1 [Example 500, 2-N-methyl-6-(5-{8-oxa-3-azabicyclo[3.2.1]octan-3-yl}-1,2,4-oxadiazol-3-yl)-2-N-phenyl-1,3,5-triazine-2,4-diamine] | > 9120 nM |
| CN(c1ccccc1)c1nc(N)nc(-c2noc(N3CCC(COCCC(F)(F)F)CC3)n2)n1 [Example 501, 2-N-methyl-2-N-phenyl-6-(5-{4-[(3,3,3-trifluoropropoxy)methyl]piperidin-1-yl}-1,2,4-oxadiazol-3-yl)-1,3,5-triazine-2,4-diamine] | 344 nM |
| Nc1nc(Nc2ccccc2)nc(-c2noc(-c3cccnc3OCC(F)(F)F)n2)n1 [Example 502, 2-N-phenyl-6-{5-[2-(2,2,2-trifluoroethoxy)pyridin-3-yl]-1,2,4-oxadiazol-3-yl}-1,3,5-triazine-2,4-diamine] | > 8950 nM |
| Nc1nc(Nc2ccccc2)nc(-c2noc(N3CC(Oc4ccccc4)C3)n2)n1 [Example 503, 6-[5-(3-phenoxyazetidin-1-yl)-1,2,4-oxadiazol-3-yl]-2-N-phenyl-1,3,5-triazine-2,4-diamine] | 461 nM |
| CC(C)S(=O)(=O)N1CCN(c2nc(-c3nc(N)nc(N(C)c4ccccc4)n3)no2)CC1 [Example 504, 2-N-methyl-2-N-phenyl-6-{5-[4-(propane-2-sulfonyl)piperazin-1-yl]-1,2,4-oxadiazol-3-yl}-1,3,5-triazine-2,4-diamine] | > 5370 nM |
| CN(c1ccccc1)c1nc(N)nc(-c2noc(C3CCN(C(=O)OC(C)(C)C)CC3)n2)n1 [Example 505, tert-butyl 4-(3-{4-amino-6-[methyl(phenyl)amino]-1,3,5-triazin-2-yl}-1,2,4-oxadiazol-5-yl)piperidine-1-carboxylate] | 982 nM |
| CN(c1ccccc1)c1nc(N)nc(-c2noc(C3CCN(S(=O)(=O)C4CC4)CC3)n2)n1 [Example 506, 6-{5-[1-(cyclopropanesulfonyl)piperidin-4-yl]-1,2,4-oxadiazol-3-yl}-2-N-methyl-2-N-phenyl-1,3,5-triazine-2,4-diamine] | 7100 nM |
| CC(C)CS(=O)(=O)N1CCC(c2nc(-c3nc(N)nc(N(C)c4ccccc4)n3)no2)CC1 [Example 507, 2-N-methyl-6-(5-{1-[(2-methylpropane)sulfonyl]piperidin-4-yl}-1,2,4-oxadiazol-3-yl)-2-N-phenyl-1,3,5-triazine-2,4-diamine] | 1230 nM |
| CCC(C)S(=O)(=O)N1CCC(c2nc(-c3nc(N)nc(N(C)c4ccccc4)n3)no2)CC1 (centres unmarked) [Example 508, 6-{5-[1-(butane-2-sulfonyl)piperidin-4-yl]-1,2,4-oxadiazol-3-yl}-2-N-methyl-2-N-phenyl-1,3,5-triazine-2,4-diamine] | 2430 nM |
| CN(c1ccccc1)c1nc(N)nc(-c2noc(C3CCN(S(=O)(=O)C4CCCC4)CC3)n2)n1 [Example 509, 6-{5-[1-(cyclopentanesulfonyl)piperidin-4-yl]-1,2,4-oxadiazol-3-yl}-2-N-methyl-2-N-phenyl-1,3,5-triazine-2,4-diamine] | 1110 nM |
| CC(C)CN1CCC(c2nc(-c3nc(N)nc(N(C)c4ccccc4)n3)no2)CC1 [Example 510, 2-N-methyl-6-{5-[1-(2-methylpropyl)piperidin-4-yl]-1,2,4-oxadiazol-3-yl}-2-N-phenyl-1,3,5-triazine-2,4-diamine] | 1260 nM |
| CC(C)(C)OC(=O)N1CCC(c2nc(-c3nc(N)nc(Nc4ccccc4)n3)no2)CC1 [Example 512, tert-butyl 4-{3-[4-amino-6-(phenylamino)-1,3,5-triazin-2-yl]-1,2,4-oxadiazol-5-yl}piperidine-1-carboxylate] | 603 nM |
| Nc1nc(Nc2ccccc2)nc(-c2noc(C3CCN(S(=O)(=O)C4CC4)CC3)n2)n1 [Example 513, 6-{5-[1-(cyclopropanesulfonyl)piperidin-4-yl]-1,2,4-oxadiazol-3-yl}-2-N-phenyl-1,3,5-triazine-2,4-diamine] | 631 nM |
| CCC(C)S(=O)(=O)N1CCC(c2nc(-c3nc(N)nc(Nc4ccccc4)n3)no2)CC1 (centres unmarked) [Example 514, 6-{5-[1-(butane-2-sulfonyl)piperidin-4-yl]-1,2,4-oxadiazol-3-yl}-2-N-phenyl-1,3,5-triazine-2,4-diamine] | 1730 nM |
| CC(C)S(=O)(=O)N1CCC(c2nc(-c3nc(N)nc(Nc4ccccc4)n3)no2)CC1 [Example 515, 2-N-phenyl-6-{5-[1-(propane-2-sulfonyl)piperidin-4-yl]-1,2,4-oxadiazol-3-yl}-1,3,5-triazine-2,4-diamine] | 797 nM |
| Nc1nc(Nc2ccccc2)nc(-c2noc(C3CCN(S(=O)(=O)C4CCCC4)CC3)n2)n1 [Example 516, 6-{5-[1-(cyclopentanesulfonyl)piperidin-4-yl]-1,2,4-oxadiazol-3-yl}-2-N-phenyl-1,3,5-triazine2,4-diamine] | > 9560 nM |
| CN(C)S(=O)(=O)N1CCC(c2nc(-c3nc(N)nc(Nc4ccccc4)n3)no2)CC1 [Example 517, 4-{3-[4-amino-6-(phenylamino)-1,3,5-triazin-2-yl]-1,2,4-oxadiazol-5-yl}-N,N-dimethylpiperidine-1-sulfonamide] | 570 nM |
